{"source": "paper PMC10222987", "about": "(Viruses, 2023)", "assay": "in vivo", "conditions": "BALB/c, mouse, sc; for AUC(0-t): AUC0–24"}
{"smiles": "O=C1c2c(O)c(=O)ccn2N([C@@H]2c3ccccc3SCc3c2ccc(F)c3F)[C@@H]2COCCN12", "note": "[baloxavir acid]", "values": [{"measurement": "AUC(0-t)", "setting": "0.125 mg/kg", "result": 267, "unit": "ng·h/mL"}, {"measurement": "Cmax", "setting": "0.125 mg/kg", "result": 18.7, "unit": "ng/mL"}, {"measurement": "AUC(0-t)", "setting": "0.25 mg/kg", "result": 535, "unit": "ng·h/mL"}, {"measurement": "Cmax", "setting": "0.25 mg/kg", "result": 37.3, "unit": "ng/mL"}, {"measurement": "AUC(0-t)", "setting": "0.5 mg/kg", "result": 961, "unit": "ng·h/mL"}, {"measurement": "Cmax", "setting": "0.5 mg/kg", "result": 66.1, "unit": "ng/mL"}, {"measurement": "AUC(0-t)", "setting": "1 mg/kg", "result": 1810, "unit": "ng·h/mL"}, {"measurement": "Cmax", "setting": "1 mg/kg", "result": 124, "unit": "ng/mL"}, {"measurement": "Cmax", "setting": "2 mg/kg", "result": 222, "unit": "ng/mL"}, {"measurement": "Cmax", "setting": "4 mg/kg", "result": 417, "unit": "ng/mL"}, {"measurement": "AUC(0-t)", "setting": "8 mg/kg", "result": 6380, "unit": "ng·h/mL"}, {"measurement": "Cmax", "setting": "8 mg/kg", "result": 414, "unit": "ng/mL"}, {"measurement": "AUC(0-t)", "setting": "16 mg/kg", "result": 11100, "unit": "ng·h/mL"}, {"measurement": "Cmax", "setting": "16 mg/kg", "result": 726, "unit": "ng/mL"}, {"measurement": "AUC(0-t)", "setting": "32 mg/kg", "result": 8860, "unit": "ng·h/mL"}, {"measurement": "Cmax", "setting": "32 mg/kg", "result": 682, "unit": "ng/mL"}, {"measurement": "AUC(0-t)", "setting": "64 mg/kg", "result": 12600, "unit": "ng·h/mL"}, {"measurement": "Cmax", "setting": "64 mg/kg", "result": 938, "unit": "ng/mL"}]}
